{
  "source": "patent US9546401B2",
  "about": "“Assays and methods for selecting a treatment regimen for a subject with depression” (The General Hospital Corporation, priority 2011, dated 2017)",
  "tested_on": "MDD patients carrying the indicated biomarkers",
  "details": "for Effect on change in HAMD-28 score / Effect on change in HAMD-17 score: Pooled phases",
  "description": "Folate levels are classified as either low (<=2.5 ng/ml) or normal; and homocysteine levels as either normal or elevated (>=[…]). The presence or absence of at least one […] allele for the MTHFR gene are entered as a dichotomous variable (present or absent). […] Using folate as an example predicator, the presence or absence of a low serum-folate level along with treatment assignment can be entered in a 2×2, factorial ANOVA, using depression improvement scores (baseline minus endpoint HAM-D-17 scores) as the dependant variable. […] Similar analyses (i.e. separate 2×2 ANOVA's) can be performed substituting the presence of low folate levels for the presence of other predictors as described herein. Similarly, the effect of other predictors can be indicated by the interaction term representing the potential modulating influence of those variables.\nThe efficacy effect is determined by measuring the mean change in the HAMD-17 score and HAMD-28 score by the end of Phase I and Phase II, as compared to the baseline.",
  "key": {"[1]": {"details": "BMI < 30 kg/m^2 and HNE-His < median"}, "[2]": {"details": "BMI < 30 kg/m^2 and SAM/SAH >= median"}, "[3]": {"details": "BMI >= 30 kg/m^2 and HNE-His >= median"}, "[4]": {"details": "BMI*treat (interaction of BMI with the treatment)"}, "[5]": {"details": "MTHFR 677 CC and BMI < 30 kg/m^2"}, "[6]": {"details": "MTHFR 677 CT or TT and BMI >= 30 kg/m^2"}, "[7]": {"details": "MTHFR 677 CT or TT and HNE-His >= median"}, "[8]": {"details": "MTR 2756 AA and BMI < 30 kg/m^2"}, "[9]": {"details": "MTR 2756 AA and HNE-His < median"}, "[10]": {"details": "MTR 2756 AA and MTRR 66 AA and SAM/SAH >= median"}, "[11]": {"details": "MTR 2756 AA and SAM/SAH >= median"}, "[12]": {"details": "MTR 2756 AG or GG and BMI >= 30 kg/m^2"}, "[13]": {"details": "MTR 2756 AG or GG and MTRR 66 AG or GG"}, "[14]": {"details": "MTR 2756 AG or GG and MTRR 66 AG or GG and HNE-His >= median"}, "[15]": {"details": "MTRR 66 AA and SAM/SAH >= median"}, "[16]": {"details": "MTRR 66 AG or GG and HNE-His >= median"}, "[17]": {"details": "SAM/SAH < median and HNE-His >= median"}, "[18]": {"details": "SAM/SAH >= median and HNE-His < median"}},
  "note": "Like-named read-outs stand apart in the source and are kept apart here. Marks after values point to notes of the source that are not given here.",
  "data": [
    {"smiles": "CN1c2c(nc(N)[nH]c2=O)NC[C@@H]1CNc1ccc(C(=O)N[C@@H](CCC(=O)O)C(=O)O)cc1", "note": "[6(S)-5-MTHF, 6(S)-5-methyltetrahydrofolate]", "values": [
      {"measurement": "Effect on change in HAMD-28 score", "setting": "BMI < 25", "result": "−1.018"},
      {"measurement": "Effect on change in HAMD-17 score", "setting": "[1]", "result": 4.738},
      {"measurement": "Effect on change in HAMD-28 score", "setting": "[1]", "result": 4.253},
      {"measurement": "Effect on change in HAMD-17 score", "setting": "[2]", "result": 2.583},
      {"measurement": "Effect on change in HAMD-28 score", "setting": "[2]", "result": 2.906},
      {"measurement": "Effect on change in HAMD-17 score", "setting": "BMI >= 30 kg/m^2", "result": "−4.600"},
      {"measurement": "Effect on change in HAMD-28 score", "setting": "BMI >= 30 kg/m^2", "result": "−4.660"},
      {"measurement": "Effect on change in HAMD-17 score", "setting": "[3]", "result": "−5.420"},
      {"measurement": "Effect on change in HAMD-28 score", "setting": "[3]", "result": "−5.996"},
      {"measurement": "Effect on change in HAMD-17 score", "setting": "BMI >= 30 kg/m^2 and SAM/SAH < median", "result": "−7.302"},
      {"measurement": "Effect on change in HAMD-28 score", "setting": "BMI >= 30 kg/m^2 and SAM/SAH < median = 2.71 (plasma)", "result": "−7.572"},
      {"measurement": "Effect on change in HAMD-17 score", "setting": "[4]", "result": "−0.233"},
      {"measurement": "Effect on change in HAMD-28 score", "setting": "[4]", "result": "−0.270"},
      {"measurement": "Effect on change in HAMD-17 score", "setting": "[5]", "result": 1.356},
      {"measurement": "Effect on change in HAMD-28 score", "setting": "[5]", "result": "−0.234"},
      {"measurement": "Effect on change in HAMD-17 score", "setting": "MTHFR 677 CC and HNE-His < median", "result": "−1.050"},
      {"measurement": "Effect on change in HAMD-28 score", "setting": "MTHFR 677 CC and HNE-His < median = 3.28 (plasma)", "result": "−1.340"},
      {"measurement": "Effect on change in HAMD-17 score", "setting": "[6]", "result": "−8.090"},
      {"measurement": "Effect on change in HAMD-28 score", "setting": "[6]", "result": "−9.884"},
      {"measurement": "Effect on change in HAMD-17 score", "setting": "[7]", "result": "−9.446"},
      {"measurement": "Effect on change in HAMD-28 score", "setting": "[7]", "result": "−9.865"},
      {"measurement": "Effect on change in HAMD-17 score", "setting": "MTR 2756 AA", "result": "−0.590"},
      {"measurement": "Effect on change in HAMD-28 score", "setting": "MTR 2756 AA", "result": "−0.047"},
      {"measurement": "Effect on change in HAMD-17 score", "setting": "[8]", "result": 3.196},
      {"measurement": "Effect on change in HAMD-28 score", "setting": "[8]", "result": 3.352},
      {"measurement": "Effect on change in HAMD-17 score", "setting": "[9]", "result": 1.319},
      {"measurement": "Effect on change in HAMD-28 score", "setting": "[9]", "result": 2.085},
      {"measurement": "Effect on change in HAMD-17 score", "setting": "MTR 2756 AA and MTRR 66 AA", "result": "−1.373"},
      {"measurement": "Effect on change in HAMD-28 score", "setting": "MTR 2756 AA and MTRR 66 AA", "result": "−3.032"},
      {"measurement": "Effect on change in HAMD-17 score", "setting": "MTR 2756 AA and MTRR 66 AA and HNE-His < median", "result": 0.466},
      {"measurement": "Effect on change in HAMD-28 score", "setting": "MTR 2756 AA and MTRR 66 AA and HNE-His < median = 3.28 (plasma)", "result": "−2.221"},
      {"measurement": "Effect on change in HAMD-17 score", "setting": "[10]", "result": "−3.98*"},
      {"measurement": "Effect on change in HAMD-28 score", "setting": "[10]", "result": "−3.74*"},
      {"measurement": "Effect on change in HAMD-17 score", "setting": "[11]", "result": 0.054},
      {"measurement": "Effect on change in HAMD-28 score", "setting": "[11]", "result": "−0.071"},
      {"measurement": "Effect on change in HAMD-17 score", "setting": "[12]", "result": "−11.714"},
      {"measurement": "Effect on change in HAMD-28 score", "setting": "[12]", "result": "−14.433"},
      {"measurement": "Effect on change in HAMD-17 score", "setting": "MTR 2756 AG or GG and HNE-His >= median", "result": "−8.072"},
      {"measurement": "Effect on change in HAMD-28 score", "setting": "MTR 2756 AG or GG and HNE-His >= median = 3.28 (plasma)", "result": "−9.508"},
      {"measurement": "Effect on change in HAMD-17 score", "setting": "[13]", "result": "−6.976"},
      {"measurement": "Effect on change in HAMD-28 score", "setting": "[13]", "result": "−9.348"},
      {"measurement": "Effect on change in HAMD-17 score", "setting": "[14]", "result": "−7.942"},
      {"measurement": "Effect on change in HAMD-28 score", "setting": "[14]", "result": "−10.241"},
      {"measurement": "Effect on change in HAMD-17 score", "setting": "MTR 2756 AG or GG and MTRR 66 AG or GG and SAM/SAH < median", "result": "−7.64*"},
      {"measurement": "Effect on change in HAMD-28 score", "setting": "MTR 2756 AG or GG and MTRR 66 AG or GG and SAM/SAH < median = 2.71 (plasma)", "result": "−11.62*"},
      {"measurement": "Effect on change in HAMD-17 score", "setting": "MTR 2756 AG or GG and SAM/SAH < median", "result": "−5.583"},
      {"measurement": "Effect on change in HAMD-28 score", "setting": "MTR 2756 AG or GG and SAM/SAH < median = 2.71 (plasma)", "result": "−11.683"},
      {"measurement": "Effect on change in HAMD-17 score", "setting": "MTR 2756 AG/GG", "result": "−5.677"},
      {"measurement": "Effect on change in HAMD-28 score", "setting": "MTR 2756 AG/GG", "result": "−8.243"},
      {"measurement": "Effect on change in HAMD-17 score", "setting": "MTRR 66 AA and HNE-His < median", "result": 2.575},
      {"measurement": "Effect on change in HAMD-28 score", "setting": "MTRR 66 AA and HNE-His < median = 3.28 (plasma)", "result": "−2.626"},
      {"measurement": "Effect on change in HAMD-17 score", "setting": "[15]", "result": "−2.978"},
      {"measurement": "Effect on change in HAMD-28 score", "setting": "[15]", "result": "−1.221"},
      {"measurement": "Effect on change in HAMD-17 score", "setting": "[16]", "result": "−4.850"},
      {"measurement": "Effect on change in HAMD-28 score", "setting": "[16]", "result": "−6.582"},
      {"measurement": "Effect on change in HAMD-17 score", "setting": "MTRR 66 AG or GG and SAM/SAH < median", "result": "−5.879"},
      {"measurement": "Effect on change in HAMD-28 score", "setting": "MTRR 66 AG or GG and SAM/SAH < median = 2.71 (plasma)", "result": "−6.579"},
      {"measurement": "Effect on change in HAMD-17 score", "setting": "[17]", "result": "−9.898"},
      {"measurement": "Effect on change in HAMD-28 score", "setting": "[17]", "result": "−9.500"},
      {"measurement": "Effect on change in HAMD-17 score", "setting": "[18]", "result": 2.107},
      {"measurement": "Effect on change in HAMD-28 score", "setting": "[18]", "result": 2.413},
      {"measurement": "Effect on change in HAMD-28 score", "setting": "SAM/SAH*treat, first line under HAMD28", "result": 0.882},
      {"measurement": "Effect on change in HAMD-17 score", "setting": "baseHAMD-17*treat (interaction of base HAMD-17 with the treatment)", "result": "−0.025"},
      {"measurement": "improvement in HDRS-28 or CGI-S", "setting": "at least one T allele (CT or TT) at MTHFR 677 versus no T allele, + SSRI", "result": "greater degree of improvement"},
      {"measurement": "improvement in HAMD-28 or CGI-S", "setting": "obese (BMI at least 30 kg/m^2) versus non-obese patients, + SSRI", "result": "greater degree of improvement"},
      {"measurement": "mean change in HAMD-28", "setting": "patients carrying at least one G variant in the MTR gene only", "result": "about −8.2"},
      {"measurement": "mean change in HAMD-28", "setting": "patients carrying both MTHFR T and MTR G variants", "result": "about −23.3"}
    ]}
  ]
}
